Results from patent US5721265A, “Fluorinated 2-nitroimidazole analogs for detecting hypoxic tumor cells” (priority 1995, dated 1998).
Converted amounts (≈) assume the structure as drawn. “And” between values parts separate entries of the source, which are not always exact repeats. Identical values can stand only once. “Also recorded” adds a separate entry of the source. Like-named read-outs stand apart in the source and are kept apart here. Blank lines part the entries; values can stand above or below the compound they belong to.

Assays:
[1] = system: mouse tumors (EMT-6, KHT, RIF-1); conditions: cited from earlier work; for 19F signal intensity by tumor type: EMT-6, KHT vs RIF-1; for retention in mouse tumors (19F MRS): in vivo
[2] = system: tumors; conditions: cited from earlier work
[3] = cited from earlier work
[4] = in vivo; cited from earlier work
[5] = log P (lipophilicity); type: physicochemical
[6] = solubility in 0.9% saline solution
[7] = reductive metabolism of SR 4554 by mouse liver microsomes under hypoxia (HPLC); type: in vitro ADME
Experimental: (§1) The chromatographic system consisted of a WISP Model 712 autosampler (Waters Chromatography Ltd.), Model 660 gradient controller with a quaternary HPLC pump, a Model 991 photodiode array detector and a NEC Powermate SX/16 personal computer running Waters 991 photodiode array software. A reversed phase chromatographic separation was performed on a 10 μm μ Bondapak C18 (3.9×300 mm) analytical column (Millipore) at ambient temperature. Pellicular ODS (Whatman) packed in a 2×6.5 mm stainless steel column (Upchurch Scientific, Inc.) was used as a pre-column. The mobile phase was methanol/H2 O) (15:85). All solvents were filtered through a 0.45 μm Teflon PTFE/polypropylene filter membrane, de-gassed with helium and delivered isocratically at a flow rate of 2 ml/min. The column effluent was monitored by UV-photodiode array detection at 324 nm (UV range=200 to 500 nm). The peak area ratio of analyte to internal standard was used for conversion of the detector response to concentration estimates via the construction of a calibration curve.
(§2) SR 4554 was reduced by mouse liver microsomes as well as purified rat and human cytochrome P450 reductase under hypoxia (100% nitrogen).
The characteristics of reductive metabolism of SR 4554 by mouse liver microsomes (0.5 mg/ml protein) are depicted in FIG. 1. Samples were removed at various time points, extracted with silver nitrate and analyzed by high performance liquid chromatography (HPLC) as described above. […] The cytochrome P450 inhibitor--carbonmonoxide--inhibited the hypoxic metabolism of SR 4554 by 15%.

[8] = system: cytochrome P450 reductase; test: reduction by purified rat cytochrome P450 reductase under hypoxia; type: in vitro ADME; conditions: 100% nitrogen
Description: as §2

[9] = system: cytochrome P450 reductase; test: reduction by purified human cytochrome P450 reductase under hypoxia; type: in vitro ADME; conditions: 100% nitrogen
Description: as §2

[10] = pharmacokinetics of SR 4554 in EMT-6 tumor-bearing mice (HPLC); type: in vivo, mouse
Experimental: Silver nitrate solution (25 μl; 30% w/v) was added to 250 μl of tissue samples and standards and to 20 μl of internal standard solution (12.5 μg/ml in 0.1M Tris buffer, pH 7.4). Samples were then vortexed and centrifuged (2000×g) for 5 min. The extracted samples 50 μl) were then injected into the HPLC.
as §1
EMT-6 tumor-bearing mice were used in this study. Mice were given a single intraperitoneal or intravenous injection (180 mg/kg body weight) or a single oral dose (p.o. 90 mg/kg) by lavage of SR 4554. Three mice were sacrificed per time point and blood obtained by cardiac puncture. The blood obtained was centrifuged to give plasma. Tumors, livers and brain were also obtained at various time points. Samples were extracted with silver nitrate and analyzed by high performance liquid chromatography (HPLC) using the procedures described in Example 4.

[11] = urinary excretion of SR 4554 in non-tumor-bearing female Balb/c mice; type: in vivo, mouse; conditions: urine
[12] = toxicity of SR 4554 in female Balb/c mice; type: in vivo, mouse
Experimental: Toxicity studies of SR 4554 were done in female Balb/c mice. Mice were injected with SR 4554 i.v with 191 mg/kg ([…]) body weight or i.p. with 383 mg/kg ([…]) body weight. Control mice were injected with an equivalent volume of solvent (saline).

[13] = system: RIF-1 tumors; test: retention in RIF-1 tumor-bearing C3H/He mice by 19F magnetic resonance spectroscopy (and HPLC); type: in vivo, mouse
Experimental: (§3) SR 4554 was administered as a single intraperitoneal injection of 180 mg/kg to RIF-1 tumor-bearing female C3 H/He mice and EMT-6 tumor-bearing female Balb/c mice. In some experiments, hydralazine ([…] i.v.) was administered 1 h prior to the administration of SR 4554. Magnetic resonance spectroscopy (MRS) was conducted on a 4.7 Tesla (SISCO) nuclear magnetic resonance (NMR) spectrometer using a double-tuned (^19 F/^2 H) circuit at 45 min and 6 hr post injection of SR 4554. Drug concentrations were obtained using a modification of the method of Thulborn et al. (1983) J. Magn. Reson. 55:357-371. Specifically, the ^19 F signal intensity was related to the natural abundance ^2 H signal from tissue water. Calibrations involved the use of a reference bulb containing 5-fluorotryptophan (5-FTP) and acetic acid-d (AcOH-d). Tumors were excised immediately after MRS examination and original drug levels determined by high performance liquid chromatography (HPLC), as described in Example 6.
It is assumed that the retention of high concentrations of ^19 F at 6 hr, despite the much lower (20 fold) concentration of original drug detected by HPLC at […], represent one or more nitro-reduced metabolites.
The retention of drug signal in RIF-1 tumors is plotted as a function of tumor weight in FIG. 7. Tumor ^19 F signal levels at 6 hrs and 45 min were calculated in μmol/g tumor. The retention of ^19 F at 6 hrs relative to 45 min in the same tumors was compared to corresponding tumor weights in grams. In this tumor model (a low hypoxic fraction tumor) the relative retention (6 hrs/45 min) correlated with tumor weight (corr. coeff.=0.83).

[14] = system: EMT-6 tumors; test: retention in EMT-6 tumor-bearing Balb/c mice by 19F magnetic resonance spectroscopy; type: in vivo, mouse
Experimental: as §3
RIF-1 and EMT-6 tumors have a low and a high radiobiological hypoxic fraction, respectively. Moulder et al. (1984), supra.

[15] = system: murine and human tumor xenografts; test: retention of 19F signal in murine and human tumor xenografts by MRS; type: in vivo, mouse; human
Experimental: In addition to the above experiment, more extensive in vivo experiments have been performed. In order to assess the oxygenation status of various murine and human tumor xenografts, the retention of ^19 F signal as measured by MRS was evaluated following SR 4554 administration. The data shown in FIG. 8 represent the mean ±SD of the ratios of ^19 F retention (μmol/g) at 6 hrs relative to 45 mins. RIF1 (fibrosarcoma), EMT6 ([…]) and KHT (adenocarcinoma) are murine tumors whereas HT29 (colon carcinoma), BB (colon carcinoma), WIL (non-small cell lung carcinoma) and HN5 (squamous cell carcinoma of the head and neck) are human tumor xenografts. Importantly, the data illustrates the varying degree of retention of SR 4554 by the different tumors.

[16] = system: C3H mouse mammary tumor; test: influence of carbogen breathing on SR 4554 retention within the C3H mouse mammary tumor; type: in vivo
Description: Table 4 presents the influence of high levels of oxygen (carbogen breathing) on SR 4554 retention within the C3H mouse mammary tumor.

[17] = system: C3H-mammary tumor; test: SR 4554 retention and oxygen electrode measurement in C3H-mammary tumor; type: in vivo, mouse
Experimental: (§4) Tumor oxygenation measurements were performed 3 hours after SR 4554 administration using a polarographic needle oxygen electrode.

[18] = system: SCCVII tumor; test: SR 4554 retention and oxygen electrode measurement in SCCVII tumor; type: in vivo
Experimental: as §4

[19] = literature compounds; cited from earlier work
[20] = per amount injected 3.34-3.55 mg

SMILES: O=[N+]([O-])c1nccn1CC(O)COC(C(F)(F)F)C(F)(F)F (stereo not shown) [CCI-103F, hexafluoromisonidazole]
19F signal intensity by tumor type [1]: higher in EMT-6 and KHT than RIF-1 tumors
retention in mouse tumors (19F MRS) [1]: selectively retained in mouse tumors
staining for bound drug in tumors ([2]; immunohistochemistry): some staining for bound drug at the periphery of necrotic zones
19F tumor signal detectable after twenty-four hours ([2]; intraperitoneal, 24 hours): 4 of 10
octanol/water partition coefficient [3]: 20
neurotoxic side effects [4]: neurotoxic side effects

logP [5]: -0.36
solubility [6]: 628 mM (≈ 205 mg/mL)
SMILES: O=C(Cn1ccnc1[N+](=O)[O-])N(CCO)CC(O)C(F)(F)F (stereo not shown) [SR 4557, N-(2-hydroxyethyl)-N-(2-hydroxy-3,3,3-trifluoropropyl)-2-(2-nitro 1H-imidazol-1-yl)acetamide]

SMILES: O=[N+]([O-])c1nccn1CC(O)CF (stereo not shown) [Ro 07-0741]
19F signal intensity by tumor type [1]: higher in EMT-6 and KHT than RIF-1 tumors
retention in mouse tumors (19F MRS) [1]: selectively retained in mouse tumors
octanol/water partition coefficient [3]: 0.41
neurotoxic side effects [4]: neurotoxic side effects

SMILES: O=C(Cn1ccnc1[N+](=O)[O-])NCC(O)C(F)(F)F (racemic) [SR 4554]
logP [5]: -0.2
inhibition of reduction by cytochrome P450 reductase inhibitor ([7]; TlCl3.4H2O, 0.2 mg/ml): completely inhibited
inhibition of reduction by air ([7]; in air): completely inhibited
Vmax of microsomal metabolism ([7]; mouse liver microsomes): 16.84 nmol/min/mg
other nitro-containing species upon metabolism ([7]; mouse liver microsomes 0.5 mg/ml protein): No other nitro-containing species were observed
reduced under hypoxia ([7]; mouse liver microsomes, 100% nitrogen): reduced; also recorded: metabolized under hypoxic conditions
Km ([7]; mouse liver microsomes, read-out: Km of microsomal metabolism): 650 µM
inhibition of reduction in the absence of cofactor (NADPH) ([7]; without NADPH): completely inhibited
reduced under hypoxia [8]: reduced
reduced under hypoxia [9]: reduced
brain/plasma ratio over time ([10]; i.p.): generally remained low throughout the observation period
liver/plasma ratio over time ([10]; i.p.): decreased very rapidly
time of peak tumor/plasma ratio ([10]; i.p.): about 90 min
liver/plasma and brain/plasma ratios at 240 min ([10]; i.p., 240 min): about the same
bioavailability ratio relative to i.v., i.v. ([10]; i.v. 180 mg/kg): 100%
detectable in plasma until ([10]; limit of detection=25 ng/ml, postinjection): ≥ 6 h
brain levels and brain/plasma ratio ([10]; mice): generally low
accumulation in the brain ([10]; mouse, in vivo): does not accumulate to any appreciable degree in the brain
bioavailability ([10]; mouse, in vivo, ip, i.p. 180 mg/kg, read-out: bioavailability ratio relative to i.v., i.p.): 100%
bioavailability ([10]; mouse, in vivo, po, p.o. 90 mg/kg, read-out: bioavailability ratio relative to i.v., p.o.): 95.5%
Cmax ([10]; mouse, plasma, read-out: Cmax, plasma): 145 µg/mL
half-life ([10]; mouse, plasma, read-out: half life, t1/2, plasma): 50.8 ± 1.6 min
Tmax ([10]; mouse, plasma, read-out: tmax, plasma (converted)): 30 min
concentration at 6 h ([10]; mouse, tissue, limit of detection, 6 hours, read-out: tissue levels of drug at 6 hours): < 100 ng/g
Cmax ([10]; mouse, tumor, read-out: Cmax, tumor): 52000 ng/g
half-life ([10]; mouse, tumor, read-out: half life, t1/2, tumor): 51.5 ± 4.4 min
Tmax ([10]; mouse, tumor, read-out: tmax, tumor (converted)): 45 min
dose excreted ([11]; mouse, read-out: detected as unchanged parent compound in urine): ≤ 66%
Amount of Drug Excreted [11, 20]: 2.62 mg and 2.39 mg and 1.83 mg
Fraction of Dose Excreted [11, 20]: 73.80% and 71.56% and 52.59%
behavioral changes or deaths ([12]; i.v. 191 mg/kg or i.p. 383 mg/kg): no behavioral changes or deaths were observed
bodyweight changes between treated and control mice ([12]; mouse, in vivo): No differences were observed
Retention (mean ± S.D.), + hydralazine ([13]; RIF-1 + hydralazine 1 h prior, n = 6): 1.27 ± 0.50
Retention (mean ± S.D.) ([13]; RIF-1, 180 mg/kg i.p., n = 13, tumor weight 0.5 to 2.7 g): 0.53 ± 0.27
clearance from the brain and retention in tumors ([13]; RIF-1 mice): rapidly cleared from the brain but selectively retained in tumors
tumor drug level, 7 hrs (HPLC) ([13]; RIF-1 tumor, original drug, 7 hrs, HPLC): 0.009 μmol/g tissue and 0.008 μmol/g tissue and 0.007 μmol/g tissue
concentration of original drug (HPLC, 7 hrs) lower than 19F (MRS, 6 hr) ([13]; RIF-1 tumors): 20 fold
increase in retention on hydralazine pre-treatment ([13]; hydralazine 1 h prior): two-fold increase
Retention (mean ± S.D.) ([14]; EMT-6, 180 mg/kg i.p., n = 12): 1.04 ± 0.66
retention in EMT-6 compared with RIF-1 tumors ([14]; MRS): greater in EMT-6 tumors than in RIF-1 tumors
retention in human tumor xenografts vs murine tumors (6 hrs relative to 45 mins) ([15]; HT29, BB, WIL, HN5 vs RIF1, EMT6, KHT): Apart from the WIL tumor, the retention of the drug in human tumor xenografts were lower than for the murine tumors
trend of retention with hypoxic fraction ([15]; murine and human tumors): tumors which are known to have a greater hypoxic fraction retained more SR 4554
Retention, air breathing ([16]; Air (20% O2)): 0.62 +/- 0.17
Retention, carbogen breathing ([16]; Carbogen (95% O2)): 0.11 +/- 0.05
reduction in retention, carbogen vs air ([16]; carbogen vs air): significant (P<0.01) reduction
SR 4554 Retention (mean ± SD) [17]: 0.79 +/- 0.36
SR 4554 Retention (mean ± SD) [18]: 0.57 +/- 0.14
solubility [6]: 23 mM (≈ 6.49 mg/mL)

SMILES: COCC(O)Cn1ccnc1[N+](=O)[O-] (stereo not shown) [Misonidazole]
log P [19]: -0.32

SMILES: O=C(Cn1ccnc1[N+](=O)[O-])NCCO [Etanidazole]
log P [19]: -1.28
neurotoxicity relative to Misonidazole [4]: less neurotoxic than Misonidazole
solubility [6]: 551 mM (≈ 118 mg/mL)
